The source of these data is PubChem BioAssay AID743303 (Broad Institute, 2014).

Values joined by “and” are separate entries in the source; they are usually repeats but may differ in a detail not shown here. Identical values can stand only once. Active and inactive are the calls of the source. How the calls were made is not given here. Bounds are passed on as bounds.

System in one assay: not listed separately
In words: fungal lysis via adenylate kinase leakage – AK release, plate reader, dry powder, set 2, dose response (AID 743303). Conditions: C. neoformans cell lysis, adenylate kinase release; at 15 µM (top of the series).
Regarding `CSc1nc2ccccc2n1CCOc1cc(C)ccc1C(C)C`, the cell lysis activity was -20.1% (inactive).
As for `Cc1ccc2c(c1)[nH]c(=S)n2CCOc1ccccc1`, the cell lysis activity was 10.9% (inactive).
As for `COc1cccc(OCCn2cnc3ccccc32)c1`, the cell lysis activity was -2.74% (inactive).
For `c1ccc(-c2ccc(OCCn3cnc4ccccc43)cc2)cc1`, the cell lysis activity was 6.2% (inactive).
As to `O=S(=O)(c1ccc(OCCn2cnc3ccccc32)cc1)N1CCOCC1`, the cell lysis activity was -15% (inactive).
For the compound `CS(=O)(=O)c1ccc(OCCn2cnc3ccccc32)cc1`, the cell lysis activity was -28.4% (inactive).
Same read-out and setting: the result for `COc1cc(C)ccc1OCCn1cnc2ccccc21` reads -57.7% (inactive).
Still for that read-out and setting: for `Cc1ccc(C(C)C)c(OCCn2c(NC#N)nc3ccccc32)c1` the value was -24% (inactive).
Consider `COc1ccccc1OCCn1c(=S)[nH]c2ccccc21`, for which the cell lysis activity was -4.68% (inactive).
`Cc1ccc(C(C)C)c(OCCn2c(=O)[nH]c3ccccc32)c1`: the cell lysis activity is -24.5% (inactive).
The same measure, in the same setting: for `Fc1ccc(OCCn2c(=S)[nH]c3ccccc32)cc1` the value was -65.4% (inactive).
Take `CC(C)Oc1ccc(OCCn2c(=S)[nH]c3ccccc32)cc1`: the cell lysis activity was 26.4% (inactive).
Same read-out and setting: for `c1ccc2c(c1)ncn2CCOc1ccc2c(c1)CCC2` the value was 33.8% (inactive); for `CSc1nc2ccccc2n1CCOc1ccc(C)cc1`, 16.4% (inactive); for `Clc1ccc(OCCn2cnc3ccccc32)c(Cl)c1`, -34% (inactive).

A further assay deals with C. neoformans cell lysis, adenylate kinase release. The assay is described as above.
Details: not given
As to `CC(C)(C)c1ccc(OCCn2c(CO)nc3ccccc32)cc1`, the AC40 is 14.2 µM.
For `COc1ccc(OCCn2cnc3ccccc32)cc1`, the AC40 was > 15 µM (inactive).
Still for that read-out and setting: the result for `Cc1cccc(OCCn2c(=S)[nH]c3ccccc32)c1` reads 1.38 µM.
Turning to `Cc1cc2ncn(CCOc3ccccc3)c2cc1C`, the AC40 was 10.1 µM.
Consider `Cc1cccc(OCCn2c(=S)[nH]c3c(F)cccc32)c1`, for which the AC40 is 3.23 µM and 1.51 µM.
For the compound `Cc1cccc(OCCn2c(=S)[nH]c3cc(F)ccc32)c1`, the AC40 is 2.42 µM and 3.03 µM.
Same read-out and setting: for `Cc1ccc(OCCn2cnc3ccccc32)c(C(C)C)c1` the value was 4.09 µM; for `Fc1ccc2c(c1)[nH]c(=S)n2CCOc1ccccc1`, 2.83 µM and 6.57 µM; for `CC(C)c1ccccc1NCCn1c(=S)[nH]c2ccccc21`, 3.78 µM.
On the same count and under the same terms, the result for `Cc1ccc(C(C)C)c(OCCn2c(CO)nc3ccccc32)c1` reads > 15 µM (inactive); that for `CSc1nc2ccccc2n1CCOc1ccccc1`, > 15 µM (inactive); that for `FC(F)(F)c1cccc(OCCn2cnc3ccccc32)c1`, > 15 µM (inactive).
Consider `Cc1cccc(OCCn2c(=S)[nH]c3ccc(C(F)(F)F)cc32)c1`, for which the AC40 was > 15 µM (inactive).
As to `Clc1ccccc1OCCn1cnc2ccccc21`, the AC40 was > 15 µM (inactive).
On the same count and under the same terms, the result for `CC(C)(C)c1ccc(OCCn2cnc3ccccc32)c(Cl)c1` reads > 15 µM (inactive); that for `Cc1ccc(C(C)C)c(OCCn2c(=S)[nH]c3ccccc32)c1`, 9.17 µM.
Consider `COCc1nc2ccccc2n1CCOc1ccc(C(C)(C)C)cc1`, for which the AC40 is > 15 µM (inactive).
In the case of `CC(C)Oc1cccc(OCCn2cnc3ccccc32)c1`, the AC40 is > 15 µM (inactive).
For the compound `Cc1ccc(C(C)C)c(OCCn2c(N)nc3ccccc32)c1`, the AC40 is > 15 µM (inactive).
On the same count and under the same terms, the result for `CC(C)Oc1ccc(OCCn2cnc3ccccc32)cc1` reads > 15 µM (inactive); that for `COc1ccccc1OCCn1c(SC)nc2ccccc21`, > 15 µM (inactive); that for `CC(C)(C)c1ccc(OCCn2cnc3ccccc32)cc1`, 1.46 µM.
Consider `Cc1ccccc1OCCn1cnc2ccccc21`, for which the AC40 is 15 µM.
The same measure, in the same setting: the result for `S=c1[nH]c2cccc(Cl)c2n1CCOc1ccccc1` reads 2.83 µM.
As for `Cc1cc2ncn(CCOc3ccccc3C)c2cc1C`, the AC40 was 2.42 µM.
On to `Fc1cccc2c1[nH]c(=S)n2CCOc1ccccc1`, for which the AC40 is 13.8 µM.
Still for that read-out and setting: for `OCc1nc2ccccc2n1CCOc1ccccc1` the value was > 15 µM (inactive); for `Cc1ccc(OCCn2cnc3cc(C)c(C)cc32)cc1`, 1.94 µM; for `CCSc1nc2ccccc2n1CCOc1ccccc1`, > 15 µM (inactive).
On the same count and under the same terms, for `CCc1nc2ccccc2n1CCOc1ccccc1` the value was > 15 µM (inactive).
As to `NCC(=O)Nc1ccc(-n2nc(C(F)(F)F)cc2-c2ccc3c(ccc4ccccc43)c2)cc1`, the AC40 was 5 µM.
As to `Cc1cc2ncn(CCOc3ccc4c(c3)CCC4)c2cc1C`, the AC40 was 4.6 µM.
The same measure, in the same setting: the result for `Cc1ccc(OCCn2cnc3ccccc32)c(C)c1` reads > 15 µM (inactive); that for `Cc1cccc(OCCn2cnc3ccccc32)c1`, 12.8 µM.
On the same count and under the same terms, for `CCCc1nc2ccccc2n1CCOc1ccccc1` the value was 7.46 µM; for `S=c1[nH]c2cc(Cl)ccc2n1CCOc1ccccc1`, 2.57 µM; for `c1ccc(COc2ccc(OCCn3cnc4ccccc43)cc2)cc1`, > 15 µM (inactive).
On the same count and under the same terms, for `CCCCc1nc2ccccc2n1CCOc1ccccc1` the value was 6.27 µM; for `CC(C)c1ccccc1OCCn1c(=S)[nH]c2ccccc21`, 1.25 µM.
Turning to `Clc1ccc(OCCn2cnc3ccccc32)cc1`, the AC40 is > 15 µM (inactive).
